Results reported in patent publication US20220194938A1, “NOVEL COMPOUNDS AND PHARMACEUTICAL COMPOSITIONS THEREOF FOR THE TREATMENT OF INFLAMMATORY DISORDERS” (GALAPAGOS NV, priority 2019, published 2022).

Experiments:
[1] = biological target: T1, human IRAK-4 (Homo sapiens, UniProt Q9NWZ3); assay: Phosphorylation IC50 determination for human IRAK-4 (ADP-Glo kinase assay); conditions: human IRAK-4, RIP140 substrate, Km ATP; read-out: IRAK4 ADPglo biochemical assay IC50
T1 construct: purchased Carna Biosciences 09 145
T1 sequence (Q9NWZ3 1-460): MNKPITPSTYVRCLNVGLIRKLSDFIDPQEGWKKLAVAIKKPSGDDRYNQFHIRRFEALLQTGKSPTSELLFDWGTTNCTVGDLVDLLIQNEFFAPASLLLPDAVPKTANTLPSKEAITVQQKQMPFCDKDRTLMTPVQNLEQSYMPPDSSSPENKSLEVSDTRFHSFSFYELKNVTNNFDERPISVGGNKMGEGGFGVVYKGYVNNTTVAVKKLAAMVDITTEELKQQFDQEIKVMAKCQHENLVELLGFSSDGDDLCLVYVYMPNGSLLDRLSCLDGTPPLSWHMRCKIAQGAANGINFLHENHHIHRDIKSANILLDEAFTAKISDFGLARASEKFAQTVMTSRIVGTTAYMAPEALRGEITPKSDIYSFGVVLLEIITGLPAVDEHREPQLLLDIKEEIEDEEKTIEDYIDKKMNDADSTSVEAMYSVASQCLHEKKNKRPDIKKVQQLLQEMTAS
Method: 3.1. Phosphorylation IC50 Determination for Human IRAK-4
The phosphorylation of the substrate RIP140 (SEQ ID1) by IRAK4 at Km ATP was detected with the ADP-Glo Kinase Assay (Promega, Cat #V9103), a luminescent kinase assay which measures the ADP formed from a kinase reaction. (Zegzouti et al. 2009) In a second step the kinase reaction was terminated and all the remaining ATP was depleted. In a final step the ADP was converted into ATP and this newly synthesized ATP was measured by using a luciferase/luciferin reaction with a luminescent reader. The luminescent signal positively correlated with kinase activity, in particular kinase inhibition giving a decrease of the luminescent signal.
For the semi-automated assay, the positive control (100% inhibition) was prepared by diluting 10 mM staurosporine stock mixture (20 μL) in water (3.8 mL) and DMSO (180 μL), thus resulting in a […] staurosporine solution at 1% DMSO (final concentration after further dilution in the kinase reaction).
For the automated assay, no pre-dilution of the 10 mM staurosporine stock was made. 10 mM staurosporine was spotted directly in the assay plate using acoustic dispensing and complemented with DMSO to result in a similar final concentration as mentioned above.
For the semi-automated assay, the negative control (0% inhibition) was prepared by mixing water (3.8 mL) and DMSO (200 μL) resulting in a final concentration of 1% DMSO after further dilution in the kinase reaction. For the automated assay no pre-dilution of DMSO was done. 100% DMSO was spotted directly on the assay plate.
The assay buffer solution was prepared at a concentration corresponding to 5 fold the final (most diluted) assay concentration by mixing a solution of 125 mM TRIS pH 7.5+0.05% Triton X-100+2.5 mM EGTA (5.27 mL) with 1M mgCl2 (72 μL), 1M DTT (57.6 μL), and 200 mM MnCl2 (360 μL).
For example, for the semi-automated method, the enzyme-substrate mixture was prepared by mixing water (3999 μL), assay buffer solution (1380 μL), 1 mM RIP140 (138 μL—SEQ ID1), and 200 ng/mL IRAK 4 (3.45 μL Carna Biosciences, 09 145).
For semi-automated method, the ATP mixture was prepared at a concentration corresponding to 2.5 fold the final (most diluted) assay concentration of the semi-automated method and 1.5 fold the final (most diluted) assay concentration of the automated method. For example, for the semi-automated method, the ATP mixture was prepared by mixing water (4126 μL), assay buffer solution (1380 μL), and 10 mM ATP (13.80 μL).
The assay was performed either in a semi-automated or fully automated manner. The assay volume and the incubation time of the ADP detection were different accordingly the method used.
3.1.3.1. Semi-Automated Assay
The compounds were prepared as a serial dilution of 10 point dose responses with 1/5 dilution steps in 100% DMSO starting from 2 mM highest concentration, diluted 1/20 in water. 1 μL was transferred dry to the assay plates.
On each assay plate 32 wells of each control (positive & negative) were added, followed by 2 μL enzyme-substrate mixture.
The reaction was started by adding 2 μL diluted ATP (final concentration Km ATP) on the assay plates. Plates were centrifuged for a few seconds at 1000 rpm followed by an incubation at r.t. for 120 min.
The reactions were stopped and the unconsumed ATP was depleted by adding 5 μL ADP-glo Reagent (Promega, Cat #V9103) to the reaction. The plates were quickly centrifuged at 1000 rpm and incubated at r.t. for 40 min corresponding to full ATP depletion.
The ADP was converted back to ATP and luciferase and luciferin were introduced to detect ATP by adding 10 μL kinase detection reagent (Promega, Cat #V9103) to the reaction. The plates were centrifuged for a few seconds at 1000 rpm and incubated at r.t. for a further 30 min.
Luminescent read out was performed on an Envision luminescent reader (Perkin Elmer). […]

[2] = tested on: pooled cryopreserved hepatocytes; assay: Metabolic stability in hepatocytes (mouse); format: in vitro ADME; conditions: 1 μM test compound
Method: (§1) 4.6. Metabolic Stability in Hepatocytes
(§2) The aim of this assay is to determine the metabolic stability of the compound in hepatocytes (cryopreserved) of different species. Low hepatocyte stability may result in the formation of unwanted metabolites, high clearance, and therefore is not desirable.
(§3) The decrease in parent was assessed by measuring the percentage remaining by LC-MS/MS analysis.
(§4) A 10 mM stock solution of test compound in DMSO was first diluted in DMSO to 3 mM, and then in modified Krebs-Henseleit buffer (Sigma, K3753) to 5 μM. This compound dilution was added to a suspension of pooled cryopreserved hepatocytes (BioreclamationIVT) at 37° C. under gentle shaking.
(§5) Final reaction conditions were: 1 μM of test compound, 0.03% DMSO, 0.5 million viable hepatocytes/mL, and 75 μL incubation volume.
(§6) Testosterone (1 μM) and 7-hydroxycoumarin (1 μM) were used, respectively as phase I and phase II metabolic reaction controls.
(§7) After 0, 10, 20, 45, 90, 120 and 180 min of incubation, the reaction was terminated with 225 μL of MeCN:MeOH (2:1) containing 100 ng/mL of diclofenac as analytical internal standard. Samples were mixed, centrifuged and the supernatant analyzed by LC-MS/MS.
(§8) The instrument responses (ratios of test compound and internal standard peak areas) were referenced to the zero time point samples (considered as 100%) in order to determine the percentage of compound remaining.
(§9) Plots of percentage compound remaining are used to determine the intrinsic clearance in the hepatocyte incubations using the following equations:
(§10) Scaled Clint[L/h/kg]=Clint[μL/min/10^6 cells]*#(10^6) cells/g liver*60*(1/10^6) Scaled Clint unbound [L/h/kg]=Clint [L/h/kg]/Fu,inc where: fu,inc equals hepatocyte binding, derived from microsomal binding (fu,mic) by following equation: […]

[3] = tested on: pooled cryopreserved hepatocytes; assay: Metabolic stability in hepatocytes (human); format: in vitro ADME; conditions: 1 μM test compound
Method: as §1, §2, §3, §4, §5, §6, §7, §8, §9, §10

Compound	IC50 [1] [nM]	Mouse (Perc. remaining at 90 min) [2] [%]	Human (Perc. remaining at 90 min) [3] [%]
COc1cc2nc(CCC(C)(C)O)cn2cc1NC(=O)c1cccn(C(C)C)c1=O [Compound 22, N-[2-(3-hydroxy-3-methyl-butyl)-7-methoxy-imidazo[1,2-a]pyridin-6-yl]-1-isopropyl-2-oxo-pyridine-3-carboxamide]	10 to 50	74.1	99.75
COc1cc2nc(CCS(C)(=O)=O)cn2cc1NC(=O)c1cccn(C(F)F)c1=O [Compound 26, 1-(difluoromethyl)-N-[7-methoxy-2-(2-methylsulfonylethyl)imidazo[1,2-a]pyridin-6-yl]-2-oxo-pyridine-3-carboxamide]	5 to 10		106
CN(C)C(=O)c1cc2nc(CCC(C)(C)O)cn2cc1NC(=O)c1cccc(C(F)(F)F)n1 [Compound 27, 2-(3-hydroxy-3-methyl-butyl)-N,N-dimethyl-6-[[6-(trifluoromethyl)pyridine-2-carbonyl]amino]imidazo[1,2-a]pyridine-7-carboxamide]	10 to 50	108.1	95.6
CC(C)(O)CCc1cn2cc(NC(=O)c3cccc(C(F)(F)F)n3)c(C(=O)N3CCC3)cc2n1 [Compound 28, N-[7-(azetidine-1-carbonyl)-2-(3-hydroxy-3-methyl-butyl)imidazo[1,2-a]pyridin-6-yl]-6-(trifluoromethyl)pyridine-2-carboxamide]	10 to 50	96.25	93.5
CCOc1cc2nc(CCC(C)(C)O)cn2cc1NC(=O)c1cccn(C)c1=O [Compound 29, N-[7-ethoxy-2-(3-hydroxy-3-methyl-butyl)imidazo[1,2-a]pyridin-6-yl]-1-methyl-2-oxo-pyridine-3-carboxamide]	10 to 50	95.2	98.85
CC(C)(O)CCc1cn2cc(NC(=O)c3cccc(C(F)(F)F)n3)c(C(=O)NCCO)cc2n1 [Compound 40, 2-(3-hydroxy-3-methylbutyl)-N-(2-hydroxyethyl)-6-(6-(trifluoromethyl)picolinamido)imidazo[1,2-a]pyridine-7-carboxamide]	0.1 to 5	94.55	94.65

Second part, the compound after the results:

IC50 [1] [nM]	Mouse (Perc. remaining at 90 min) [2] [%]	Human (Perc. remaining at 90 min) [3] [%]	Compound
5 to 10	23.5	89.95	COc1cc2nc(CCC(C)(C)O)cn2cc1NC(=O)c1cccc(CC#N)n1 [Compound 14, 6-(cyanomethyl)-N-[2-(3-hydroxy-3-methyl-butyl)-7-methoxy-imidazo[1,2-a]pyridin-6-yl]pyridine-2-carboxamide]
0.1 to 5	60.05	48.5	COc1cc2nc(CCC(C)(C)O)cn2cc1NC(=O)c1ccc(F)c(C)n1 [Compound 15, 5-fluoro-N-[2-(3-hydroxy-3-methyl-butyl)-7-methoxy-imidazo[1,2-a]pyridin-6-yl]-6-methyl-pyridine-2-carboxamide]
10 to 50	74.55	29.2	COc1cc2nc(CCC(C)(C)O)cn2cc1NC(=O)c1cncc(C)n1 [Compound 16, N-[2-(3-hydroxy-3-methyl-butyl)-7-methoxy-imidazo[1,2-a]pyridin-6-yl]-6-methyl-pyrazine-2-carboxamide]
0.1 to 5	34.9	71.95	COc1cc2nc(CCC(C)(C)O)cn2cc1NC(=O)c1cccc(CO)n1 [Compound 21, 6-(hydroxymethyl)-N-[2-(3-hydroxy-3-methyl-butyl)-7-methoxy-imidazo[1,2-a]pyridin-6-yl]pyridine-2-carboxamide]
5 to 10	6.59	49.8	COc1cc2nc(CCC(C)(C)O)cn2cc1NC(=O)c1cccc(Cl)n1 [Compound 34, 6-chloro-N-[2-(3-hydroxy-3-methylbutyl)-7-methoxyimidazo[1,2-a]pyridin-6-yl]pyridine-2-carboxamide]
